Test results taken from US11053223B2, “Phenoxyquinazoline compounds and their use in treating cancer” (AstraZeneca AB, priority 2017, dated 2021).

Legend:
[1] = molecular target: T1, KIT exon11 deletion (557-558) and secondary mutation D816H (Homo sapiens, UniProt P10721, D816H/DEL557-558); assay: MTS viability assay, Ba/F3 expressing KIT exon11 deletion (557-558) and D816H; format: cell-based; details: 72 h, KIT exon11 deletion (557-558) plus secondary mutation, mean of at least 3 biological replicates
T1 construct: expressed in transfected cells; host or cells: Ba/F3 cells infected with lentivirus (pLVX-IRES Puro vector)
Experimental: (§1) 3 different KIT cDNA encoding for the exon11 deletion (557-558) and a secondary mutation (V654A, T670I, D816H) from Genescript were cloned into pLVX-IRES Puro vector(Clontech). Lentiviral particles were generated using Trans-lentiviral ORF packaging kit (TLP 5918) from Thermo Scientific (Waltham, Mass.) in HEK293-T/17 cells, according to the manufacturer's instructions.
(§2) Exponentially grown Ba/F3 cells (1.5×10^6 cells in 2 ml medium) were infected with 2 ml of viral suspension in a 6-well plate in the presence of mIL-3 (10 ng/ml) and polybrene (4 μg/ml) (Sigma Aldrich, St. Louis, Mo.) and incubated for 24 h. After 24 h, the cells were centrifuged and the viral supernatant was discarded. The cells were then re-suspended in fresh medium and allowed to recover for another day. The following day, the cells were seeded in complete medium without murine IL-3. After a week or two, when cells started proliferating, a selection was carried out by gradually increasing the puromycin concentration to 0.5 ug/ml. Once the cells were growing exponentially in puromycin, batches of cells were frozen down for banking.
(§3) The impact of KIT inhibitors on the viability of Ba/F3 expressing KIT mutations was determined using an MTS assay, which is a colorimetric sensitive quantification of viable cells in proliferation and cytotoxicity assay. In the MTS assay […] in the presence of phenazine methosulfate (PMS) was used. The mitochondrial reductase forms a formazan which absorbs at 490 nm. Cells in exponential growth phase were added to 384-well plates containing pre-dispensed compounds (top concentration 10 uM, 10-point curve). The cells were incubated for 72 h at 37° C. and 5% CO2. After 72 h, MTS reagent was added to the plates and incubated an additional 2 h at 37° C. before measuring the absorbance at 490 nm on a Tecan microplate reader using Magellan Software (Tecan Trading AG, Switzerland).
(§4) The absorbances were normalized as follows: (Read-Day0 control)/(Day3 control-Day0 control)*100. The GI50 values were generated using Genedata Screener software (Genedata; Lexington, Mass.). A non-linear regression with constraints for top and bottom between 100 and −100 and no constraint on the Hill coefficient was used to generate GI50 values. The GI50 values reported below are the calculated mean result of at least 3 biological replicates across all the cell lines tested.

[2] = molecular target: T2, KIT exon11 deletion (557-558) and secondary mutation T670I (Homo sapiens, UniProt P10721, DEL557-558/T670I); assay: MTS viability assay, Ba/F3 expressing KIT exon11 deletion (557-558) and T670I; format: cell-based; details: 72 h, KIT exon11 deletion (557-558) plus secondary mutation, mean of at least 3 biological replicates
T2 construct: expressed in transfected cells; host or cells: Ba/F3 cells infected with lentivirus (pLVX-IRES Puro vector)
Experimental: as §1, §2, §3, §4

Ba/F3-Parental = assay: MTS viability assay, Ba/F3 parental cells; format: cell-based; details: Mus musculus, BaF3, 72 h, top concentration 10 uM, mean of at least 3 biological replicates
Experimental: as §3, §4

[3] = molecular target: T3, KIT exon11 deletion (557-558) and secondary mutation V654A (Homo sapiens, UniProt P10721, DEL557-558/V654A); assay: MTS viability assay, Ba/F3 expressing KIT exon11 deletion (557-558) and V654A; format: cell-based; details: 72 h, KIT exon11 deletion (557-558) plus secondary mutation, mean of at least 3 biological replicates
T3 construct: expressed in transfected cells; host or cells: Ba/F3 cells infected with lentivirus (pLVX-IRES Puro vector)
Experimental: as §1, §2, §3, §4

[4] = tested on: Tel-KDR (KDR K790-V1356 fused to the C-terminus of Tel); assay: MTS viability assay, Ba/F3 expressing Tel-KDR; format: cell-based; details: 72 h, Ba/F3 cells, mean of at least 3 biological replicates
Experimental: Tel-KDR myc was cloned into pBCS2004, a retroviral vector, wherein KDR (K790-V1356) is fused to the C-terminus of Tel. Retroviral particles were generated in HEK293T cells. The Tel-KDR plasmid was co-transfected with helper viruses (gag-Pol and VSV-G) into HEK293T cells using calcium phosphate and the virus was harvested 72 h after transfection.
as §2, §3, §4

GIST [5] = details: PhIII study, patients with GIST after relapse to imatinib and sunitinib; cited from earlier work
GIST [6] = details: within 2 years; cited from earlier work

T3 sequence (P10721 with tags, fused parts or gaps DEL557-558/V654A): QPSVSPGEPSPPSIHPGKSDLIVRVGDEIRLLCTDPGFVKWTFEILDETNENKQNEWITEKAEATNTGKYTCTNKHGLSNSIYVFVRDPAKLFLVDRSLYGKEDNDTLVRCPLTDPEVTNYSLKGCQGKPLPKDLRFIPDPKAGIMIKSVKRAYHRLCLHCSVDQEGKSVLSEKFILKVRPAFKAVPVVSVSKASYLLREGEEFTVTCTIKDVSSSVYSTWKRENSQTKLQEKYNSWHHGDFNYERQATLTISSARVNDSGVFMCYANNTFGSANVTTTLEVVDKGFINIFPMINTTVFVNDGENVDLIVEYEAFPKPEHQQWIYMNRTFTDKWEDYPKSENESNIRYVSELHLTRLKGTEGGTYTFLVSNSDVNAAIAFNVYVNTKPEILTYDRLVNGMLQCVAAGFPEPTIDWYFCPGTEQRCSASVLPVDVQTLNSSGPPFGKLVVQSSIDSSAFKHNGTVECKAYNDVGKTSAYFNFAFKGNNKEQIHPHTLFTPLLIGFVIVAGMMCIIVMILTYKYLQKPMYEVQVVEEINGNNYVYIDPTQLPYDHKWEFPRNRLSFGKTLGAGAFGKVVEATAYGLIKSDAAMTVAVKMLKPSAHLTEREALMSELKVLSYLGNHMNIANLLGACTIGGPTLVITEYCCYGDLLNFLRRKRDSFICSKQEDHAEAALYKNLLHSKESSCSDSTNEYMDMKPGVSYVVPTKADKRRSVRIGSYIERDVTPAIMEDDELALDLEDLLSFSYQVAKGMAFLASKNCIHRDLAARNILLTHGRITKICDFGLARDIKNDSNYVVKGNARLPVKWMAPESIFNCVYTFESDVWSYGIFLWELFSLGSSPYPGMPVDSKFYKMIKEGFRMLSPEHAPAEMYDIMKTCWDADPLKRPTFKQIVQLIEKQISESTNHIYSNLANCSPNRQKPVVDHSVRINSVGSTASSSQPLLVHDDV
T2 sequence (P10721 with tags, fused parts or gaps DEL557-558/T670I): as the sequence (P10721 with tags, fused parts or gaps DEL557-558/V654A) above, with A627V, T643I counted along it
T1 sequence (P10721 with tags, fused parts or gaps DEL557-558/D816H): as the sequence (P10721 with tags, fused parts or gaps DEL557-558/V654A) above, with A627V, D789H counted along it

Row | GI50 [4] [nM] | SMILES | Ba/F3-D816H GI50 [1] [nM] | Ba/F3-T6701 GI50 [2] [nM] | GI50 (Ba/F3-Parental) [nM] | Ba/F3-V654A GI50 [3] [nM] | median PFS (GIST [5]) [months] | patients developed resistance (GIST [6]) [%]
1 | 840 | COc1cc2c(Oc3ccc(NC(=O)Cn4cc(C(C)C)nn4)cc3)ncnc2cc1O[C@@H]1CCOC1 (single isomer, unassigned) [Example 12] | 22 | 23 | ≥ 10000 | 11 | – | –
2 | 577 | COc1cc2c(Oc3ccc(NC(=O)Cn4cc(C(C)C)nn4)cc3)ncnc2cc1O[C@H]1CCOC1 (single isomer, unassigned) [Example 13] | 24 | 30 | ≥ 10000 | 13 | – | –
3 | 600 | COc1cc2ncnc(Oc3ccc(NC(=O)Cn4cc(C(C)C)nn4)cc3)c2cc1OC [Example 1, N-(4-((6,7-Dimethoxyquinazolin-4-yl)oxy)phenyl)-2-(4-isopropyl-1H-1,2,3-triazol-1-yl)acetamide] | 19 | 17 | ≥ 10000 | 3 | – | –
4 | 1930 | COc1cc2ncnc(Oc3ccc(NC(=O)Cn4cc(C5CC5)nn4)cc3)c2cc1OC [Example 2, 2-(4-Cyclopropyl-1H-1,2,3-triazol-1-yl)-N-(4-((6,7-dimethoxyquinazolin-4-yl)oxy)phenyl)acetamide] | 95 | 68 | ≥ 10000 | 4 | – | –
5 | 1080 | COc1cc(Oc2ncnc3cc(OC)c(OC)cc23)ccc1NC(=O)Cn1cc(C(C)C)nn1 [Example 3, N-(4-((6,7-Dimethoxyquinazolin-4-yl)oxy)-2-methoxyphenyl)-2-(4-isopropyl-1H-1,2,3-triazol-1-yl)acetamide] | 41 | 23 | ≥ 10000 | 13 | – | –
6 | 142 | COc1cc2ncnc(Oc3ccc(NC(=O)Cn4cc(C(C)C)nn4)cc3F)c2cc1OC [Example 4, N-(4-((6,7-Dimethoxyquinazolin-4-yl)oxy)-3-fluorophenyl)-2-(4-isopropyl-1H-1,2,3-triazol-1-yl)acetamide] | 15 | 8 | ≥ 10000 | 1 | – | –
7 | 289 | COCCOc1cc2ncnc(Oc3ccc(NC(=O)Cn4cc(C(C)C)nn4)cc3)c2cc1OC [Example 5, 2-(4-Isopropyl-1H-1,2,3-triazol-1-yl)-N-(4-((6-methoxy-7-(2-methoxyethoxy)quinazolin-4-yl)oxy)phenyl)acetamide] | 15 | 11 | ≥ 10000 | 8 | – | –
8 | 2770 | COc1cc2c(Oc3ccc(NC(=O)Cn4cc(C(C)C)nn4)cc3)ncnc2cc1OCCN1CCCC1 [Example 6, 2-(4-Isopropyl-1H-1,2,3-triazol-1-yl)-N-(4-((6-methoxy-7-(2-(pyrrolidin-1-yl)ethoxy)quinazolin-4-yl)oxy)phenyl)acetamide] | 55 | 72 | ≥ 10000 | 22 | – | –
9 | 2520 | COc1cc2c(Oc3ccc(NC(=O)Cn4cc(C(C)C)nn4)cc3)ncnc2cc1OCCN(C)C [Example 7, N-(4-((7-(2-(Dimethylamino)ethoxy)-6-methoxyquinazolin-4-yl)oxy)phenyl)-2-(4-isopropyl-1H-1,2,3-triazol-1-yl)acetamide] | 41 | 57 | ≥ 10000 | 15 | – | –
10 | 1160 | COc1cc2c(Oc3ccc(NC(=O)Cn4cc(C(C)C)nn4)cc3)ncnc2cc1OCCO [Example 8, N-(4-((7-(2-Hydroxyethoxy)-6-methoxyquinazolin-4-yl)oxy)phenyl)-2-(4-isopropyl-1H-1,2,3-triazol-1-yl)acetamide] | 75 | 55 | ≥ 10000 | 25 | – | –
11 | 2110 | COc1cc2c(Oc3ccc(NC(=O)Cn4cc(C(C)C)nn4)cc3)ncnc2cc1OC1CCOCC1 [Example 9, 2-(4-Isopropyl-1H-1,2,3-triazol-1-yl)-N-(4-((6-methoxy-7-((tetrahydro-2H-pyran-4-yl)oxy)quinazolin-4-yl)oxy)phenyl)acetamide] | 46 | 77 | ≥ 10000 | 17 | – | –
12 | 1840 | COc1cc2c(Oc3ccc(NC(=O)Cn4cc(C(C)C)nn4)cc3)ncnc2cc1OC1COC1 [Example 10, 2-(4-Isopropyl-1H-1,2,3-triazol-1-yl)-N-(4-((6-methoxy-7-(oxetan-3-yloxy)quinazolin-4-yl)oxy)phenyl)acetamide] | 51 | 74 | ≥ 10000 | 18 | – | –
13 | 903 | COc1cc2c(Oc3ccc(NC(=O)Cn4cc(C(C)C)nn4)cc3)ncnc2cc1OC(C)C [Example 11, N-[4-(7-Isopropoxy-6-methoxy-quinazolin-4-yl)oxyphenyl]-2-(4-isopropyl-1H-1,2,3-triazol-1-yl)acetamide] | 28 | 57 | ≥ 10000 | 16 | – | –
14 | – | CNC(=O)c1cc(Oc2ccc(NC(=O)Nc3ccc(Cl)c(C(F)(F)F)c3)c(F)c2)ccn1 [Regorafenib] | – | – | – | – | 4.8 | –
15 | – | Cc1ccc(NC(=O)c2ccc(CN3CCN(C)CC3)cc2)cc1Nc1nccc(-c2cccnc2)n1 [imatinib, Imatinib] | – | – | – | – | – | 50
